Like-named read-outs stand apart in the source and are kept apart here.
T1: CARM1_135–479 (Homo sapiens, UniProt Q86X55)
T1 construct: human CARM1, residues 135 to 479; MBP (N, cleaved yes); linker and TEV site […]; (N, cleaved yes); made in house; host or cells: E. coli BL21-CodonPlus (DE3)-RIL
T1 sequence (Q86X55 135-479): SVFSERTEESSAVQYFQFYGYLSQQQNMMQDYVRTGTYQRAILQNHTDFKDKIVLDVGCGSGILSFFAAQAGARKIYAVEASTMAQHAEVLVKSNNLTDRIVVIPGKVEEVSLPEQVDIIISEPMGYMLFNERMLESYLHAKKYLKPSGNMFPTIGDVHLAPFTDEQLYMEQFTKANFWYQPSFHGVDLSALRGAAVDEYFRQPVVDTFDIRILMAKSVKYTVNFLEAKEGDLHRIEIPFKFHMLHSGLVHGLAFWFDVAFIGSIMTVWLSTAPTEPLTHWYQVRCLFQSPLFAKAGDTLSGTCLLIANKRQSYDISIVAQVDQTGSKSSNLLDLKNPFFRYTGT

T2: CARM1 N265Y (Homo sapiens, UniProt Q86X55, N265Y)
T2 sequence (Q86X55 135-479 N265Y): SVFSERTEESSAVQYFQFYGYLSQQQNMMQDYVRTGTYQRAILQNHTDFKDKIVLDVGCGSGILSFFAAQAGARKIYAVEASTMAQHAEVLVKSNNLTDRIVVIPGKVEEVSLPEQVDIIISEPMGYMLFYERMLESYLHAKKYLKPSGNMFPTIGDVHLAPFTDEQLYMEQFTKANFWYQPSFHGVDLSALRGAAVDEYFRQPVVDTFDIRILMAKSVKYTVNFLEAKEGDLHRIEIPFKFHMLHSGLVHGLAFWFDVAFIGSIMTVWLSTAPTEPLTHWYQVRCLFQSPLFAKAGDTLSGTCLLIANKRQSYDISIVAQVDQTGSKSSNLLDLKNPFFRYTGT

T3: CARM1 N161E (Homo sapiens, UniProt Q86X55, N161E)
T3 sequence (Q86X55 135-479 N161E): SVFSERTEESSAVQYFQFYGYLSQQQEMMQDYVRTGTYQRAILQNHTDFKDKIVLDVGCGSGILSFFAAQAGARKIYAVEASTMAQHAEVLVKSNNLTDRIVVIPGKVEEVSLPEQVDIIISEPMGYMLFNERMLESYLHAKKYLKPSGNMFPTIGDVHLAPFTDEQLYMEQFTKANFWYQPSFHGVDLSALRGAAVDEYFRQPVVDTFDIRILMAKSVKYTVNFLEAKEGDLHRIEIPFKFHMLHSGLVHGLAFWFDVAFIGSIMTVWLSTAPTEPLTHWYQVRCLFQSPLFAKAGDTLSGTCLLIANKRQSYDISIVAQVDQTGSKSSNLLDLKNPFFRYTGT

T4: human CARM1 (CARM1_135–479) (Homo sapiens, UniProt Q86X55)
T4 sequence (Q86X55 135-479): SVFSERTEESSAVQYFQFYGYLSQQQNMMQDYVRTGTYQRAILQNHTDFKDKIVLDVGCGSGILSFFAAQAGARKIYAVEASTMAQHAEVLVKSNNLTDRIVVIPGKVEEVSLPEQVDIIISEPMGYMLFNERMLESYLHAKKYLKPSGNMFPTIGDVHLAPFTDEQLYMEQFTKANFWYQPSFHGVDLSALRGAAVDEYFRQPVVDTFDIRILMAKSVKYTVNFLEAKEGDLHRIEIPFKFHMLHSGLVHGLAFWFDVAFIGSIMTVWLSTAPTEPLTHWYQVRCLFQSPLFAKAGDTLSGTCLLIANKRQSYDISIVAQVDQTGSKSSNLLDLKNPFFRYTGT


How the values were obtained:
CARM1_135–479 = target: T1, CARM1_135–479; assay: Radiometric methylation assay, CARM1 with H3(3–31) and [methyl-3H]-SAM; type: biochemical; conditions: 0.23 µM [3H]-SAM
CARM1 N265Y = target: T2, CARM1 N265Y; assay: ITC with CARM1 N265Y mutant; conditions: for N ± standard error, CARM1 N265Y / ∆H ± standard error, CARM1 N265Y / -T∆S, CARM1 N265Y / ∆G, CARM1 N265Y: ITC; for -T∆S, CARM1 N265Y / ∆G, CARM1 N265Y: calculated indirectly
CARM1 N161E = target: T3, CARM1 N161E; assay: ITC with CARM1 N161E mutant; conditions: for N ± standard error, CARM1 N161E / ∆H ± standard error, CARM1 N161E / -T∆S, CARM1 N161E / ∆G, CARM1 N161E: ITC; for -T∆S, CARM1 N161E / ∆G, CARM1 N161E: calculated indirectly
[1] = target: T4, human CARM1 (CARM1_135–479); assay: Isothermal titration calorimetry (ITC) with CARM1 catalytic domain; type: binding; conditions: for -T∆S, CARM1: calculated indirectly; for ∆G, CARM1: calculated indirectly from best-fit Kd and ∆H; for Binding more strongly to CARM1 over PRMT1 (as judged by ITC): ratio of Kd values PRMT1/CARM1
CARM1 = conditions: cited from earlier work
other methyltransferases = test system: other methyltransferases; set-up: method as in PMID 29719619; conditions: cited from earlier work
[2] = test system: multiple myeloma xenograft model; set-up: method as in PMID 29269946; conditions: cited from earlier work
[3] = target: human PRMT1 (PRMT1_22–361) (Homo sapiens, UniProt Q99873); assay: Isothermal titration calorimetry (ITC) with PRMT1; type: binding; conditions: for -T∆S, PRMT1: calculated indirectly
Chain of human PRMT1 (PRMT1_22–361) (Q99873 32-371): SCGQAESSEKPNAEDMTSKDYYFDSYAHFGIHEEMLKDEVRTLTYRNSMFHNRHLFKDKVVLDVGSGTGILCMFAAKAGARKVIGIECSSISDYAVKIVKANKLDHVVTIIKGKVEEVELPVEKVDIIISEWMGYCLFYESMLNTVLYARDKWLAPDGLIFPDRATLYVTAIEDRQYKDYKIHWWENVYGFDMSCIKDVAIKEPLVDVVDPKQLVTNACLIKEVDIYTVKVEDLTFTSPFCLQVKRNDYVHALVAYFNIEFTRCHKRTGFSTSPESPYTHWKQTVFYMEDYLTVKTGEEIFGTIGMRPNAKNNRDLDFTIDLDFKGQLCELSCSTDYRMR

PRMT1_22–361 = PRMT1_22–361 (Homo sapiens, UniProt Q99873); assay: Radiometric methylation assay, PRMT1 with H4(1–21) and [methyl-3H]-SAM; type: biochemical; conditions: 160 nM PRMT1, 40 µM H4(1–21), 0.23 µM [3H]-SAM, 30°C, 60 min; read-out: IC50 (95% confidence interval), PRMT1
Chain of PRMT1_22–361 (Q99873 32-371): as above

[4] = target: the molecule itself; assay: crystal structure; CARM1(135-479) co-crystallised with small-molecule inhibitors 4, 5, 6 and 7; sitting-drop vapour diffusion, 20°C; space group P2(1)2(1)2
[5] = 320 nM CARM1, 120 µM H3(3–31), read-out: IC50 (95% confidence interval), CARM1
[6] = ITC, 25°C, read-out: Kd ± standard error, CARM1
[7] = ITC, Table 2, wild-type, read-out: Kd ± standard error from curve fitting, CARM1 WT

Molecule | IC50 (CARM1_135–479; [5]) [nM] | Kd (CARM1 N265Y) [nM] | N ± standard error, CARM1 N265Y (CARM1 N265Y) | ∆H ± standard error, CARM1 N265Y (CARM1 N265Y) [kcal/mol] | -T∆S, CARM1 N265Y (CARM1 N265Y) [kcal/mol] | ∆G, CARM1 N265Y (CARM1 N265Y) [kcal/mol] | Kd (CARM1 N161E) [nM] | N ± standard error, CARM1 N161E (CARM1 N161E) | ∆H ± standard error, CARM1 N161E (CARM1 N161E) [kcal/mol] | -T∆S, CARM1 N161E (CARM1 N161E) [kcal/mol] | ∆G, CARM1 N161E (CARM1 N161E) [kcal/mol] | N (stoichiometry) ± standard error from curve fitting, CARM1 ([1]; ITC) | ∆H ± standard error from curve fitting, CARM1 ([1]; ITC) [kcal/mol] | Kd [1, 6] [nM] | Kd [1, 7] [nM] | -T∆S, CARM1 ([1]; ITC) [kcal/mol] | ∆G, CARM1 ([1]; ITC) [kcal/mol] | other results
NCCCN(CCCNc1ncccn1)C[C@H]1O[C@@H](n2cnc3c(N)ncnc32)[C@H](O)[C@@H]1O [Inhibitor 8] | 700 | 5180 ± 1860 | 0.698 ± 0.051 | -15 ± 2.01 | 7.82 | -7.22 | 1110 ± 201 | 0.745 ± 0.012 | -27 ± 0.906 | 18.9 | -8.13 | 0.529 ± 0.0042 | -29.6 ± 0.445 | 2300 ± 162 | 2300 ± 162 | 22 | -7.7 | 
Nc1ncnc2c1ncn2[C@@H]1O[C@H](CN(CCCNc2ccccn2)CC[C@H](N)C(=O)O)[C@@H](O)[C@H]1O [Inhibitor 10] |  | 143000 ± 75900 |  |  |  |  | 181 ± 17 | 1.02 ± 0.004 | -22.5 ± 0.232 | 13.3 | -9.2 | 0.536 ± 0.0079 | -17.5 ± 0.459 |  |  | 9.35 | -8.13 | IC50 (CARM1_135–479; IC50 (95% confidence interval), CARM1, 320 nM CARM1, 120 µM H3(3–31)): 800 nM; Kd ([1]; Kd ± standard error from curve fitting, CARM1 WT, ITC, Table 2, wild-type): 1110 ± 132 nM; Kd ([1]; Kd ± standard error, CARM1, ITC, 25°C): 1110 ± 132 nM; Binding more strongly to CARM1 over PRMT1 (as judged by ITC) [1]: ~40 fold
N=C(N)NCCCCCN(CC[C@H](N)C(=O)O)C[C@H]1O[C@@H](n2cnc3c(N)ncnc32)[C@H](O)[C@@H]1O [Inhibitor 7] | 24100 |  |  |  |  |  | 8180 ± 482 |  |  |  |  | 0.648 ± 0.032 | -18.6 ± 2.31 | 38100 ± 9610 | 38100 ± 9610 | 12.5 | -6.02 | 
CNC[C@@H](O)COc1ccc(Cl)c(-c2nc(-c3c(C)noc3C)c(C)c(N3CC4(CCN(C(=O)OC)CC4)C3)n2)c1 [EPZ022302/EZM2302] |  |  |  |  |  |  |  |  |  |  |  |  |  |  |  |  |  | IC50 (CARM1; read-out: CARM1 inhibitor potency): […]; Anti-tumour activity in vivo [2]: anti-tumour activity in vivo
NCCCN(CCCNc1ccccn1)C[C@H]1O[C@@H](n2cnc3c(N)ncnc32)[C@H](O)[C@@H]1O [Inhibitor 9] | 300 | 3260 ± 458 | 1.07 ± 0.035 | -14.8 ± 0.803 | 7.31 | -7.48 | 354 ± 34 | 0.914 ± 0.005 | -20.7 ± 0.28 | 11.9 | -8.8 | 0.529 ± 0.025 | -20.6 ± 1.77 | 1140 ± 411 | 1140 ± 411 | 12.5 | -8.13 | Binding more strongly to CARM1 over PRMT1 (as judged by ITC) [1]: ~15 fold
N=C(N)NCCCN(CCCN)C[C@H]1O[C@@H](n2cnc3c(N)ncnc32)[C@H](O)[C@@H]1O [Inhibitor 4] | 2300 |  |  |  |  |  |  |  |  |  |  | 0.481 ± 0.0062 | -24.6 ± 0.633 | 3320 ± 335 |  | 17.2 | -7.48 | N (stoichiometry) ± standard error from curve fitting, PRMT1 [3]: 0.519 ± 0.0082; ∆H ± standard error from curve fitting, PRMT1 ([3]; 10: competition experiment): -16 ± 0.77 kcal/mol; Kd ([3]; 25°C, direct titration, 7: stoichiometry fixed to 0.5, read-out: Kd ± standard error, PRMT1): 10200 ± 996 nM; ∆G, PRMT1 ([3]; calculated indirectly from best-fit Kd and ∆H, 10: competition experiment): -6.81 kcal/mol; -T∆S, PRMT1 ([3]; 10: competition experiment): 9.2 kcal/mol; IC50 (PRMT1_22–361): 7200 nM
Nc1ncnc2c1ncn2[C@@H]1O[C@H](CSCC[C@H](N)C(=O)O)[C@@H](O)[C@H]1O [SAH, S-Adenosylhomocysteine, reference compound] |  |  | 0.737 ± 0.004 | -23.7 ± 0.251 | 15.8 | -7.96 |  | 0.692 ± 0.0047 | -29.9 ± 0.44 | 20.6 | -9.39 | 0.549 ± 0.0086 | -35.1 ± 1.1 |  |  | 27 |  | N (stoichiometry) ± standard error from curve fitting, PRMT1 [3]: 0.485 ± 0.0037; ∆H ± standard error from curve fitting, PRMT1 ([3]; 10: competition experiment): -23.4 ± 0.335 kcal/mol; -T∆S, PRMT1 ([3]; 10: competition experiment): 15 kcal/mol
catalytic domain of human CARM1, residues 135 to 479 (domain or fragment, UniProt Q86X55 135-479, looked up, MBP and the linker removed with TEV protease; also called CARM1_(135–479); CARM1 catalytic domain; not shown: MBP, N-terminal, cleaved) SVFSERTEESSAVQYFQFYGYLSQQQNMMQDYVRTGTYQRAILQNHTDFKDKIVLDVGCGSGILSFFAAQAGARKIYAVEASTMAQHAEVLVKSNNLTDRIVVIPGKVEEVSLPEQVDIIISEPMGYMLFNERMLESYLHAKKYLKPSGNMFPTIGDVHLAPFTDEQLYMEQFTKANFWYQPSFHGVDLSALRGAAVDEYFRQPVVDTFDIRILMAKSVKYTVNFLEAKEGDLHRIEIPFKFHMLHSGLVHGLAFWFDVAFIGSIMTVWLSTAPTEPLTHWYQVRCLFQSPLFAKAGDTLSGTCLLIANKRQSYDISIVAQVDQTGSKSSNLLDLKNPFFRYTGT |  |  |  |  |  |  |  |  |  |  |  |  |  |  |  |  |  | binding result [4]: binds

Source: PMC7054760, “Structural and biochemical evaluation of bisubstrate inhibitors of protein arginine N-methyltransferases PRMT1 and CARM1 (PRMT4)” (Biochemical Journal, 2020)
